Experimental data reported in PMC10301896 (Pharmaceutics, 2023).
In brackets after ≈: the same amount, converted by molar mass. Several values for one entry are separate records, joined by “and”; a condition that tells them apart may be missing. Equal entries are not always repeated. Entries after “also recorded” stand apart in the source; their conditions may differ. Where two headings read alike, the source gives them in different places. Each block holds one compound with its values, some of them ahead of it.

What was measured:
[1] = cited from earlier work
[2] = 2% liver homogenates, 1 min incubation; cited from earlier work
[3] = 2% mucosal homogenate, 1 min incubation; cited from earlier work
[4] = cited from earlier work; remark: listed apart in the source
[5] = 10% plasma, 1 min incubation; cited from earlier work
[6] = cited from earlier work; remark: listed apart in the source
[7] = Chelation with Al3+ ion in vitro (precipitation with AlCl3); format: physicochemical; settings: for Precipitation (%): drug 50 μM, pH 6.5, 30 min, 24 °C
Procedure: AlCl3 was also dissolved in the same buffer at a concentration of 50 μM, 100 μM, 200 μM, 1 mM, or 2 mM, and each drug solution and AlCl3 solution were mixed at an equal volume. The mixture solution was shaken, stood for 30 min at 24 °C and centrifuged. The supernatant was filtrated through a syringe filter with 0.22 μm of pore size (Millipore, Tokyo, Japan).

[8] = control rabbits
[9] = cited from earlier work; for Rate of adsorption onto solid Al(OH)3: quinolones 50 µM
[10] = rats; cited from earlier work
[11] = cited from earlier work; remark: listed apart in the source
[12] = sheep, dose of 2 mg/kg; cited from earlier work
[13] = mixed-breed dogs, dose of 5 mg/kg; cited from earlier work
[14] = Mucosal damage after EDTA treatment: oral absorption of FD-4; settings: >10 mL of 1 mg/mL EDTA 2Na orally, rabbits
Procedure: FD-4 was administered orally by stomach intubation at 10 mg/kg and 10 mL water. Blood (100 μL each) was taken periodically at 0, 0.5, 1, 2, and 4 h after administration from the ear vein. […] The concentrations of FD-4 in plasma were determined by Spectro fluorophotometer RF-1500 (Shimadzu Co., Ltd., Kyoto, Japan) using an excitation and emission wavelength of 480 nm and 520 nm, respectively.

[15] = rats; cited from earlier work; remark: listed apart in the source
[16] = individual rabbits
Text: Rabbits were supplied solid food for rabbits (CR-3M, CLEA Japan, Inc., Tokyo, Japan), and the average amount of CR-3M that each rabbit ingested was 100–110 g/day. CR-3M contains various vitamins and cationic metals including Ca, Mg, and iron (Fe^2+, Fe^3+) in addition to various energy sources. […] Coprophagy was not prevented in control rabbits.
To estimate gastric contents, gastric Ca and Mg concentrations, and gastric pH in the untreated control (not fasted), control (fasted) and EDTA-treated rabbits, rabbits were sacrificed by intraperitoneal injection of an excess amount of pentobarbital. Rabbits were opened along the midline and their stomach was isolated. The stomach contents were taken out into a test tube and weighed, and the suspension was centrifuged at 3000 rpm for 10 min to measure the amount of gastric water. Then, concentrations of the Ca and Mg in the supernatant were measured by using L type Wako Ca (Fujifilm, Tokyo, Japan) and L type Wako Mg N (Fujifilm, Tokyo, Japan), respectively, and an automated clinical chemistry analyzer, TBA-nx360 (Canon, Tokyo, Japan). The pH of gastric water was also determined.

[17] = Enzymatic stability in rat 10% plasma; format: in vitro ADME; settings: 37 °C
Procedure: (§1) Briefly, to examine the chemical stability of CFX-EHE, pH 6.5 and pH 7.4 phosphate buffer solutions (PBS) were used. Enzymatic stability of CFX-EHE (the initial concentration was 0.1 mM) was determined at 1, 5, and 15 min after the start of incubation at 37 °C using the following specimen: rat 10% plasma obtained from male Sprague Dawley (SD) rats, rat 2% small intestinal mucosal homogenates, and rat 2% liver homogenates in the same manner as described previously. […].

[18] = Enzymatic stability in rat 2% small intestinal mucosal homogenates; format: in vitro ADME; settings: rat 2% mucosal homogenate, 37 °C
Procedure: as §1

[19] = Chemical stability in phosphate buffer solutions; format: physicochemical; settings: 37 °C
Procedure: as §1

S. aureus ATCC29213 = assay: MIC, agar plate dilution method; format: cell-based, Staphylococcus (S.) aureus
Procedure: The bacterial numbers of S. aureus, E. coli, and P. aeruginosa were adjusted to McFarland 0.5 ([…]) with the sterilized isotonic NaCl solution. These bacterial solutions were inoculated in Mueller–Hinton broth containing CFX or CFX-EHE. Facultative anaerobic and aerobic bacteria were cultured under the aerobic condition at 37 °C for 20 h.

[20] = Enzymatic stability in rat 2% liver homogenates; format: in vitro ADME; settings: 37 °C
Procedure: as §1

[21] = Partition coefficient, chloroform/0.1 M Tris-HCl buffer (pH 6.5); format: physicochemical
Procedure: Briefly, chloroform and 0.1 M Tris-HCl buffer (pH 6.5) were mutually saturated before experiments. […] Four milliliters of each drug solution were added to 4 mL of chloroform, and the mixture was vigorously shaken for 30 min at 25 °C. After centrifugation at 3000 rpm for 10 min, the concentration of the compound in both phases was determined by HPLC.

P. aeruginosa ATCC27853 = assay: MIC, agar plate dilution method; format: cell-based, Pseudomonas (P.) aeruginosa
E. coli ATCC25922 = assay: MIC, agar plate dilution method; format: cell-based, Escherichia (E.) coli
Procedure: The bacterial numbers of S. aureus, E. coli, and P. aeruginosa were adjusted to McFarland 0.5 ([…]) with the sterilized isotonic NaCl solution. […] Facultative anaerobic and aerobic bacteria were cultured under the aerobic condition at 37 °C for 20 h.

[22] = Solubility in pH 2 buffer and 0.1 M Tris-HCl buffer (pH 6.5); format: physicochemical; settings: thermodynamic from solid, 25 °C
Procedure: The mixture was centrifuged at 3000 rpm for 10 min, and the supernatant was filtered through a syringe filter with 0.22 μm of pore size (Millipore, Tokyo, Japan), and the concentrations of the compound in the filtrate were measured by HPLC.

[23] = gastric water, EDTA-treated rabbits

Compound: CCOC(=O)OC(C)OC(=O)c1cn2c3c(c(N4CCN(C)CC4)c(F)cc3c1=O)OC[C@@H]2C (some centres unmarked) [LFX-EHE, levofloxacin-ethoxycarbonyl 1-ethyl hemiacetal ester]
- PC [1]: 75.2
- PC (lipophilicity) of LFX-EHE relative to LFX [1]: 13 fold
- Average hydrolysis % [2]: 17.7%
- Average hydrolysis % [3]: 17.4%
- Precipitation in the presence of AlCl3 ([4]; 1 mM of AlCl3 (drug: AlCl3 = 1:20)): not precipitated
- Average hydrolysis % [5]: 8.2%
- Solubility at pH 2.0 [6]: 16.54 mg/mL

- Precipitation (%) ([7]; AlCl3 25 μM): 20.4 ± 17.6%
- Precipitation (%) ([7]; AlCl3 50 μM): 22.9 ± 16.7%
- Precipitation (%) ([7]; AlCl3 100 μM): 39.2 ± 17.7%
- Precipitation (%) ([7]; AlCl3 500 μM): 55.5 ± 18.0%
- Precipitation (%) ([7]; AlCl3 1 mM): 73.4 ± 2.0%
Compound: O=C(O)c1cn(C2CC2)c2cc(N3CCNCC3)c(F)cc2c1=O [CFX, ciprofloxacin]
- β ([8]; […] iv infusion, LFX 20, CFX 30, TC 10 mg/kg): 0.34 ± 0.04 h⁻¹

- Total plasma clearance (CLtotal), Doseiv/AUC0–∞ ([8]; iv infusion): 13.7 mL/min/kg
Compound: C[C@H]1COc2c(N3CCN(C)CC3)c(F)cc3c(=O)c(C(=O)O)cn1c23 [LFX, levofloxacin]
- Elution rate of adsorbed quinolones with water [9]: 17.9%
- Rate of adsorption onto solid Al(OH)3 [9]: 48.1%
- PC [1]: 5.6
- Dose absorbed as the intact form from the intestinal tract into the portal system [10]: approximately 90%
- Oral bioavailabilities in humans ([11]; LFX 200–750 mg, CFX 200–1000 mg, TC 250 mg, ref references listed in the discussion section): 70–100% (200–750 mg)
- Fecal recovery, % of an intravenous dose ([11]; human, in vivo, iv): approximately 15%
- Oral bioavailability ([11]; human, in vivo, po, 200 mg): 69 ± 7%
- Oral bioavailability ([11]; human, in vivo, po, 250 mg): 79 ± 47%
- Oral bioavailability ([11]; human, in vivo, po, 500 mg): 82 ± 13%
- Oral bioavailability ([11]; human, in vivo, po): approximately 70%
- Oral bioavailability ([11]; humans, review article): approximately 100%
- Precipitation percentage ([4]; 50 μM of AlCl3, same in vitro conditions): 12.4%
- Absolute oral bioavailability [12]: 114 ± 27.7%
- Absolute oral bioavailability [13]: 71.93 ± 9.75%

Compound: O=C([O-])CN(CCN(CC(=O)O)CC(=O)O)CC(=O)[O-].[Na+].[Na+] [EDTA 2Na, disodium ethylenediamine tetraacetic acid]
- Effect of added EDTA 2Na on precipitation of CFX with AlCl3 ([7]; EDTA 2Na 4 mg/mL, 12 mM added to mixture solutions of CFX and AlCl3): completely inhibited
- Mucosal damage after EDTA treatment [14]: without causing mucosal damage
- Lowest effective dose to increase the permeability of dichloromethylene bisphosphonate [15]: 100 mg/kg
- Minimal effective dose to increase membrane permeability to 4-amino-1-hydroxybutylidene-1,1-bisphosphonate [15]: 10 mg/kg
- Gastric Contents (g) ([16]; EDTA-treated rabbits (free access to 1 mg/mL EDTA 2Na, 10 mL at 1 h before; coprophagy prevented)): (3) 13.1 (hair > pellets) g; also recorded: (1) 9.5 (hair > pellets) g; also recorded: (2) 7.8 (hair > pellets) g
- Gastric pH ([16]; EDTA-treated rabbits): 1.3 and 1.6 and 1.2
- Water Contents ([16]; EDTA-treated rabbits): 10.5 mL and 6.7 mL and 4.8 mL
- Concentrations Ca [16, 23]: 1.9 mg/dL and 2.6 mg/dL and 1.3 mg/dL
- Concentrations Mg [16, 23]: 1.9 mg/dL and 1.6 mg/dL

Compound: CCn1cc(C(=O)O)c(=O)c2cc(F)c(N3CCNCC3)nc21 [ENX, enoxacin]
- Elution rate of adsorbed quinolones with water [9]: 18.3%
- Rate of adsorption onto solid Al(OH)3 [9]: 61.0%

- Hydrolysis (%) ([17]; 1 min): 9.5 ± 9.0%
- Hydrolysis (%) ([17]; 5 min): 27.2 ± 1.0%
- Hydrolysis (%) ([17]; 15 min): 71.1 ± 17.4%
- Hydrolysis (%) ([18]; 1 min): 20.4 ± 2.7%
- Hydrolysis (%) ([18]; 5 min): 59.0 ± 9.2%
- Hydrolysis (%) ([18]; 15 min): 85.9 ± 11.5%
- Hydrolysis (%) ([19]; 0.1 M PBS (pH 6.5), 1 min): 0%
- Hydrolysis (%) ([19]; 0.1 M PBS (pH 6.5), 5 min): 0%
- Hydrolysis (%) ([19]; 0.1 M PBS (pH 6.5), 15 min): 0%
- Hydrolysis (%) ([19]; 0.1 M PBS (pH 7.4), 1 min): 0%
- Hydrolysis (%) ([19]; 0.1 M PBS (pH 7.4), 5 min): 0%
- Hydrolysis (%) ([19]; 0.1 M PBS (pH 7.4), 15 min): 0%
- MIC of CFX-EHE relative to CFX (S. aureus ATCC29213; S. aureus): more than 10 times
- MIC (S. aureus ATCC29213; Staphylococcus aureus, S. aureus ATCC29213, 37 °C, 20 h): 4 µg/mL (≈ 8.94 µM)
- Precipitation (%) ([7]; AlCl3 25 μM): 0%
- Precipitation (%) ([7]; AlCl3 50 μM): 0%
- Precipitation (%) ([7]; AlCl3 100 μM): 0%
- Precipitation (%) ([7]; AlCl3 500 μM): 0%
- Hydrolysis (%) ([20]; 1 min): 38.4 ± 15.8%
- Hydrolysis (%) ([20]; 5 min): 69.5 ± 9.5%
- Hydrolysis (%) ([20]; 15 min): 94.8 ± 3.4%
- log PC ([21]; chloroform/0.1 M Tris-HCl buffer (pH 6.5), 25 °C): 0.79
- PC (partition coefficient) ([21]; chloroform/0.1 M Tris-HCl buffer (pH 6.5), 25 °C, mean of 3): 6.12
- Apparent PC of CFX-EHE relative to CFX ([21]; chloroform/pH 6.5 buffer): 13 fold
- MIC of CFX-EHE relative to CFX (P. aeruginosa ATCC27853; P. aeruginosa): more than 10 times
- MIC (P. aeruginosa ATCC27853; Pseudomonas aeruginosa, P. aeruginosa ATCC27853, 37 °C, 20 h): 8 µg/mL (≈ 17.9 µM)
- MIC of CFX-EHE relative to CFX (E. coli ATCC25922; E. coli): more than 10 times
- MIC (E. coli ATCC25922; Escherichia coli, E. coli ATCC25922, 37 °C, 20 h): 0.5 µg/mL (≈ 1.12 µM)
- solubility at 30 min ([22]; aqueous buffer, 0.1 M Tris-HCl buffer (pH 6.5), read-out: Solubility pH 6.5): 3080 µg/mL (≈ 6880 µM)
- solubility at 30 min ([22]; pH 2 buffer adjusted with hydrochloric acid, pH 2, aqueous buffer, read-out: Solubility pH 2.0): 4280 µg/mL (≈ 9570 µM)
Compound: CCOC(=O)OC(C)OC(=O)c1cn(C2CC2)c2cc(N3CCNCC3)c(F)cc2c1=O (centres unmarked) [CFX-EHE]

Compound: CC1COc2c(N3CCN(C)CC3)c(F)cc3c(=O)c(C(=O)O)cn1c23 (centres unmarked) [OFX, ofloxacin]
- Elution rate of adsorbed quinolones with water [9]: 20.9%
- Rate of adsorption onto solid Al(OH)3 [9]: 47.2%
